Values joined by “and” are separate entries in the source; they are usually repeats but may differ in a detail not shown here. Equal values may be shown once.
Experiments:
[1] = system: Streptococcus pneumoniae (PRSP); experiment: MIC at pH 3.5, CLSI, Mueller-Hinton broth; type: cell-based
[2] = system: Providencia species; experiment: MIC at pH 3.5, CLSI, Mueller-Hinton broth; type: cell-based; conditions: 5 isolates
Description: (§1) Bacterial strains evaluated in this study include Escherichia coli, Klebsiella spp, Serratia marcescens, Proteus mirabilis/vulgaris, Citrobacter spp, Providencia spp, Morganella morganii, Pseudomonas aeruginosa, Staphylococcus aureus (MRSA only), and Enterococcus faecalis. Nu-8 test solutions are adjusted to pH 3.5 with citric acid, and […] is evaluated per the CLSI methods in Mueller-Hinton broth supplemented accordingly to facilitate growth of specific strains.

[3] = system: Enterococcus faecalis; experiment: MIC at pH 3.5, CLSI, Mueller-Hinton broth; type: cell-based; conditions: 5 isolates
Description: as §1

[4] = system: Citrobacter species; experiment: MIC at pH 3.5, CLSI, Mueller-Hinton broth; type: cell-based; conditions: 5 isolates
Description: as §1

[5] = system: Klebsiella pneumoniae; experiment: MIC at pH 3.5, CLSI, Mueller-Hinton broth; type: cell-based; conditions: 5 isolates
Description: as §1

[6] = system: Pseudomonas aeruginosa; experiment: MIC at pH 3.5, CLSI, Mueller-Hinton broth; type: cell-based; conditions: 20 isolates
Description: as §1

[7] = system: E. coli ATCC25922; experiment: Urinary tract infection model in rats, transurethral treatment (Example 11); type: in vivo, Sprague-Dawley rats; conditions: 60 min
Description: Female Sprague-Dawley rats (n=6/group) are intraurethrally infected with the predetermined inoculum size of E. coli. At the specified time following infection with (depending on the in vivo growth curve), the animals are anaesthetized (ketamine/xylazine) and treated by transurethral administration with neutral saline (group 1), saline pH 3.5 adjusted with phosphoric acid (group 2), test compound Nu-8 pH 3.5 at 103 and 207 mg/kg (groups 3 and 4, respectively). When adjusting pH, the volume of phosphoric acid added are monitored and the final concentration of the pH adjusted dose solution are subsequently determined. The goal is to have the final concentration after pH adjustment within 10% of the desired dose so the final concentration after pH adjustment are reported. Volume of administration will be 300 μL. TABLE 9 (Animal Challenge and Treatment Schedule) summarizes the study groups.
Two hours prior to each infection animals are water deprived. Each animal is infected twice with 24 hrs difference by transurethral administration of 300 μL of bacterial suspension under light ketamine and xylazine anaesthesia. Prior to infection, urine is evacuated by digital pressure, cannula is gently inserted into the bladder via urethra, and 300 μL of bacterial suspension is inserted into the bladder. […]

[8] = system: Aspergillus fumigatus (ATCC13073); experiment: Neutropenic lung infection model in mice, lung fungal burden and mortality (Example 24); type: in vivo, BALB/c mice
Description: Neutropenic, BALB/c female mice, all of which were from 6 to 8 weeks of age, were infected intranasally with Aspergillus fumigatus (ATCC13073) at inoculum strengths of ˜1×10^6 conidia/animal (Part A) and ˜1×10^4 conidia/animal (Part B). Twenty four hours after infection, animals were treated by aerosol route with vehicle and Nu-8 (10% solution) for one, two, three, and five days. Two hours following treatment, groups of mice were terminated on days 1, 3, and 5, and lungs were collected to determine fungal load. A similar procedure was followed at inoculum strengths of ˜1×10^3 conidia/animal (Part C) and ˜1×10^2 conidia/animal (Part D).
This experiment was performed in four parts: Part A (infection with 1×10^6 conidia/animal), Part B (infection with 1×10^4 conidia/animal), Part C (infection with 1×10^3 conidia/animal), and Part D (infection with 1×10^2 conidia/animal). The mice were separated into cohorts in accordance with Table 13 (Part A), Table 14 (Part B), Table 15 (Part C), and Table 16 (Part D).
On day −4 (four days before the date of infection), each mouse was dosed with a single intraperitoneal injection of cyclophosphamide equivalent to 150 mg/kg and returned to its cage. On day −1 (one day before infection) each mouse received a dose equivalent to 100 mg/kg of cyclophosphamide. Neutropenia was confirmed with differential leukocyte count on day 0.
One week before infection, an aliquot from the glycerol stocks of Aspergillus fumigatus (ATCC13073) was taken and grown on Potato Dextrose Agar (PDA) plates for seven days in an incubator at 25° C. After seven days, conidia were collected by scraping the colonies from the PDA plate with a sterile loop and washing the surface of the plate with sterile distilled water. The conidial suspension was collected into a sterile tube and filtered through 10 layers of sterile cheese (muslin) cloth/Whatman filter paper to remove hyphal fragments from the spore suspension. The optical density of the filtered suspension was adjusted to an equivalent of ˜1×10^8 conidia/ml. The inoculum was serially diluted in normal saline and viability was checked by hemocytometer.
Animals were divided into different groups as specified in the experimental design (Tables 13-16). Infections were conducted in a biological safety cabinet, with appropriate personnel protection. Mice were placed into an induction chamber and anesthesia was induced by exposing the animals to 3%-5% Isoflurane in an oxygen flow set at approximately 1 liter per minute (LPM). Once the animals were in a sufficiently deep plane of anesthesia, they were removed and infected. Infection was done by injection of 0.02 ml (containing ˜1×10^8 CFU/ml for Part A, ˜1×10^6 CFU/ml for Part B, ˜1×10^5 CFU/ml for Part C, and ˜1×10^4 CFU/ml for Part D). 10 μl was instilled into each nostril of the anesthetized animal (˜2×10^6 CFU/animal for Part A, ˜2×10^4 CFU/animal for Part B, ˜2×10^3 CFU/animal for Part C, ˜2×10^2 CFU/animal for Part D) using a 10 μl pipette. A gentle shaking/mixing of inoculum between two animals was followed for uniform distribution.
The vehicle used for the test compound was saline (0.9% NaCl adjusted to pH 3.5 with citric acid). To make 10% solution, 15 g Nu-8 was weighed and dissolved in 145 ml of the saline and the pH of the solution was adjusted to 3.5 with citric acid (0.1 M) in a final volume of 150 ml.
Treatment began twenty four hours after infection. Test formulations were administered by aerosol route with nose only apparatus connected to a nebulizer (Omron Ne-C28 Compressor Nebulizer with a volume capacity of 15 ml, Particle size 3 μm, Nebulization rate: 0.5 ml/min and Aerosol output rate: 0.09 ml/min). Test formulations were placed into the nebulizer fluid cup; animals were placed in the nose-only apparatus, and the entire system was placed inside a Class II Biosafety Cabinet. […]

With `CCCCOP(=O)(O)OC[C@H]1O[C@@H](n2ccc(N)nc2=O)C[C@@H]1OP(=O)(O)OCCCC` [Nu-8, sodium ((2R,3S,5R)-5-(4-amino-2-oxopyrimidin-1(2H)-yl)-3-((butoxyoxidophosphor-yl)oxy)tetrahydrofuran-2-yl)methyl butyl phosphate] the “Nu-8 MIC (mg/mL) at pH 3.5” value [1] was 9.38-18.75 mg/mL, the “Nu-8 MIC (mg/mL) at pH 3.5” value [2] was 9.38-37.5 mg/mL and the “Nu-8 MIC (mg/mL) at pH 3.5” value [3] was 4.69-18.75 mg/mL. The “Nu-8 MIC (mg/mL) at pH 3.5” value [4] was 18.75-37.5 mg/mL, the “Nu-8 MIC (mg/mL) at pH 3.5” value [5] was 37.5-75 mg/mL and the “MIC50 at pH 3.5” value [6] was 18.75 mg/mL. For the same compound, the “MIC90 at pH 3.5” value [6] was 18.75 mg/mL, the “Nu-8 MIC (mg/mL) at pH 3.5” value ([6]; MIC range) was 9.38-18.75 mg/mL and the “mean CFU log 10 per mL of bladder tissue (tissue plus urine)” value ([7]; pH 3.5, 103 mg/kg transurethral) was 5.53 Log 10 CFUs/mL bladder tissue. The “mean CFU log 10 per mL of bladder tissue (tissue plus urine)” value ([7]; pH 3.5, 207 mg/kg transurethral) was 4.60 Log 10 CFUs/mL bladder tissue, the “Log10 CFU/g lung” value ([8]; Part A, 1×10^6 conidia/animal, 10% aerosol single dose, individual mice) was 6.16 Log10 CFU/g lung and 5.71 Log10 CFU/g lung and 4.51 Log10 CFU/g lung and 5.41 Log10 CFU/g lung and 5.14 Log10 CFU/g lung and 5.76 Log10 CFU/g lung and the “% Mortality” value ([8]; Part A, 10% aerosol, 3 doses, once daily for 3 days, day 3) was 50% and 50 [day 3] %. For the same compound, the “Log10 CFU/g lung” value ([8]; Part A, 10% aerosol, 3 doses, once daily for 3 days, individual surviving mice) was 4.96 Log10 CFU/g lung and 5.48 Log10 CFU/g lung and 3.23 Log10 CFU/g lung, the “Mean ± SD (Log10 CFU/g lung)” value ([8]; Part A, 10% aerosol, 3 doses, once daily for 3 days, n = 3) was 4.56 ± 1.18 Log10 CFU/g lung and the “Log10 CFU/g lung” value ([8]; Part A, 10% aerosol, 5 doses, once daily for 5 days, individual surviving mice) was 4.28 Log10 CFU/g lung and 4.06 Log10 CFU/g lung. For the same compound, the “Mean (Log10 CFU/g lung)” value ([8]; Part A, 10% aerosol, 5 doses, once daily for 5 days, n = 2) was 4.17 (n = 2) Log10 CFU/g lung, the “efficacy vs day 1 control and day 3 vehicle controls” value ([8]; Part A, day 3 and day 5) was “marked efficacy” and the “efficacy vs vehicle control” value ([8]; Part A, single dose (day 1), p>0.05) was “did not show significant efficacy”. For the same compound, the mean fungal count ([8]; Part A, treated with Nu-8 (10%) for three days, day 3) was 4.56 log10 spores/g lung, the mean fungal count ([8]; Part A, treatment with Nu-8 (10%), day 5) was 4.17 log10 spores/g lung and the “Mean ± SD (Log10 spores/g lung)” value ([8]; Part B, 1×10^4 conidia/animal, 10% aerosol single dose (Table 20 group 3), terminated day 3) was 4.41±0.29 Log10 spores/g lung. For the same compound, the Log10 spores/g lung ([8]; Part B, 1×10^4 conidia/animal, 10% aerosol single dose, terminated day 3, individual mice) was 3.99 Log10 spores/g lung and 4.72 Log10 spores/g lung and 4.51 Log10 spores/g lung and 4.83 Log10 spores/g lung and 4.23 Log10 spores/g lung and 4.45 Log10 spores/g lung and 4.14 Log10 spores/g lung and 4.34 Log10 spores/g lung, the “Mean ± SD (Log10 spores/g lung)” value ([8]; Part B, 10% aerosol, 3 doses, once daily for 3 days) was 4.31±0.29 Log10 spores/g lung and the Log10 spores/g lung ([8]; Part B, 10% aerosol, 3 doses, once daily for 3 days, individual mice) was 4.29 Log10 spores/g lung and 4.45 Log10 spores/g lung and 3.93 Log10 spores/g lung and 4.28 Log10 spores/g lung and 4.34 Log10 spores/g lung and 4.87 Log10 spores/g lung and 4.24 Log10 spores/g lung and 4.03 Log10 spores/g lung. For the same compound, the “Mean ± SD (Log10 spores/g lung)” value ([8]; Part C, 1×10^3 conidia/animal, 10% aerosol, 3 doses, once daily for 3 days) was 3.65±0.50 Log10 spores/g lung, the Log10 spores/g lung ([8]; Part C, 1×10^3 conidia/animal, 10% aerosol, 3 doses, once daily for 3 days, individual mice) was 4.30 Log10 spores/g lung and 3.67 Log10 spores/g lung and 3.46 Log10 spores/g lung and 4.05 Log10 spores/g lung and 3.54 Log10 spores/g lung and 2.85 Log10 spores/g lung and the “Mean ± SD (Log10 spores/g lung)” value ([8]; Part D, 1×10^2 conidia/animal, 10% aerosol, 5 doses, once daily for 5 days) was 2.49±0.16 Log10 spores/g lung. For the same compound, the Log10 spores/g lung ([8]; Part D, 1×10^2 conidia/animal, 10% aerosol, 5 doses, once daily for 5 days, individual mice) was 2.71 Log10 spores/g lung and 2.23 Log10 spores/g lung and 2.50 Log10 spores/g lung and 2.52 Log10 spores/g lung and 2.44 Log10 spores/g lung and 2.56 Log10 spores/g lung.
